These results are taken from ChEMBL document CHEMBL4033749, “Synthesis and biological evaluation of 5-fatty-acylamido-1, 3, 4-thiadiazole-2-thioglycosides” (Bioorg Med Chem Lett, 2017).

For orientation: MIC means the lowest concentration found to suppress growth. In general, IC50 refers to the midpoint of a concentration-inhibition curve.

Each structure is given as a SMILES string. In brackets after ≈: the same amount, converted by molar mass. Activity calls are given as the source filed them. The calls are words filed in the database; no cut-off is given here.

One assay deals with Pseudomonas aeruginosa. Kind of assay: Antibacterial activity Pseudomonas aeruginosa MTCC 1688 by agar well method. Type of assay: functional.
The next assay deals with Staphylococcus aureus. As to the kind of experiment: Antibacterial activity Staphylococcus aureus MTCC 96 by agar well method. It is filed as functional.
The test system of another assay is HeLa. Kind of assay: Cytotoxicity against human HeLa cells incubated for 24 hrs by MTT asasy. Type of assay: functional, cell-based. As to conditions: Homo sapiens, HeLa, 24 h; read-out: IC50.
Another assay concerns Klebsiella pneumoniae. As to the kind of experiment: Antibacterial activity Klebsiella pneumoniae MTCC 618 by agar well method. Type of assay: functional.
Another assay has as its system SK-OV-3. As to the kind of experiment: Cytotoxicity against human SKOV3 cells incubated for 24 hrs by MTT asasy. Particulars: sk-ov-3. It is filed as functional, cell-based.
A further assay has as its system Escherichia coli. As to the kind of experiment: Antibacterial activity Escherichia coli MTCC 443 by agar well method. It is filed as functional.
In assay [1] the test system is Staphylococcus epidermidis. Kind of assay: Antibacterial activity Staphylococcus epidermidis MTCC 9041 by agar well method. It is filed as functional.
The subject of another assay is Bacillus subtilis. Kind of assay: Antibacterial activity Bacillus subtilis MTCC 441 by agar well method. It is filed as functional.
A further assay relates to DU-145. As to the kind of experiment: Cytotoxicity against human DU145 cells incubated for 24 hrs by MTT asasy. Type of assay: functional, cell-based.
The next assay relates to MDA-MB-231. As to the kind of experiment: Cytotoxicity against human MDA-MB-231 cells incubated for 24 hrs by MTT asasy. It is filed as functional, cell-based. Particulars: Homo sapiens, MDA-MB-231, 24 h; read-out: IC50.
The subject of another assay is CHO-K1. As to the kind of experiment: Cytotoxicity against CHOK1 cells incubated for 24 hrs by MTT asasy. It is filed as cell-based, Cricetulus griseus.
[2] abbreviates: Homo sapiens, DU-145, 24 h, read-out: IC50.
Where [3] appears, read: Cricetulus griseus, CHO-K1, 24 h, read-out: IC50.

Take `CCCCCCCC/C=C\CCCCCCCC(=O)Nc1nnc(S[C@@H]2O[C@H](COC(C)=O)[C@H](OC(C)=O)[C@H](OC(C)=O)[C@H]2OC(C)=O)s1`: the MIC result (with Pseudomonas aeruginosa; in the assay on Staphylococcus aureus; in the assay on Klebsiella pneumoniae; in the assay on Escherichia coli; in [1]; in the assay with Bacillus subtilis) was “inactive” in each case. In addition, the half-inhibitory concentration (IC50) was 54.4 µM in the assay with HeLa; “Not Active” in the assay with SK-OV-3; 42 µM in the assay with DU-145 (setting [2]); 23.6 µM in the assay with MDA-MB-231; 26.3 µM with CHO-K1 (setting [3]).

`CCCCCCCCCC(=O)Nc1nnc(S[C@@H]2O[C@H](COC(C)=O)[C@H](OC(C)=O)[C@H](OC(C)=O)[C@H]2OC(C)=O)s1`: the MIC entry (in the assay on Pseudomonas aeruginosa; with Staphylococcus aureus; in the assay on Klebsiella pneumoniae; in the assay with Escherichia coli; in assay [1]; with Bacillus subtilis) was “inactive” throughout. Also, the half-inhibitory concentration (IC50) is 44.9 µM with HeLa; “Not Active” in the assay on SK-OV-3; 34.4 µM in the assay on DU-145 (setting [2]); 19.2 µM in the assay with MDA-MB-231; 19.4 µM in the assay with CHO-K1 (setting [3]).

As for `CCCCCCCCCCCCCCCC(=O)Nc1nnc(S[C@@H]2O[C@H](COC(C)=O)[C@H](OC(C)=O)[C@H](OC(C)=O)[C@H]2OC(C)=O)s1`, the MIC entry (with Pseudomonas aeruginosa; with Staphylococcus aureus; in the assay with Klebsiella pneumoniae; in the assay with Escherichia coli; in assay [1]; with Bacillus subtilis) was “inactive” throughout. Further, the IC50 in the assay with HeLa is 58.3 µM; in the assay on SK-OV-3 it was “Not Active”; in the assay with DU-145 (setting [2]), 30.1 µM; with MDA-MB-231, 25.4 µM; in the assay with CHO-K1 (setting [3]), 90.4 µM.

Take `CCCCCCCC/C=C\CCCCCCCCCCCC(=O)Nc1nnc(S[C@@H]2O[C@H](COC(C)=O)[C@H](OC(C)=O)[C@H](OC(C)=O)[C@H]2OC(C)=O)s1`: the MIC result (in the assay on Pseudomonas aeruginosa; with Staphylococcus aureus; with Klebsiella pneumoniae; in the assay on Escherichia coli; in [1]; in the assay on Bacillus subtilis) was “inactive” in each case. In addition, the concentration for half-maximal inhibition (IC50) is 58.5 µM in the assay on HeLa; “Not Active” in the assay on SK-OV-3; 28.4 µM in the assay on DU-145 (setting [2]); 25.3 µM in the assay with MDA-MB-231; 25.2 µM in the assay on CHO-K1 (setting [3]).

Take `CCCCCCCCCCCCCCCC(=O)Nc1nnc(S[C@@H]2O[C@H](CO)[C@H](O)[C@H](O)[C@H]2O)s1`: the minimal inhibitory concentration (MIC) (in the assay with Pseudomonas aeruginosa; with Staphylococcus aureus; against Klebsiella pneumoniae; with Escherichia coli; in assay [1]; with Bacillus subtilis) was over 150 µg/mL in each case. For the same molecule, the IC50 with HeLa was 14.2 µM; in the assay on SK-OV-3 it was “Not Active”; in the assay with DU-145 (du-145), “Not Active”; in the assay on MDA-MB-231, 62.3 µM; in the assay with CHO-K1 (cho-k1) it was “Not Active”.

Regarding `CCCCCCCCCCCC(=O)Nc1nnc(S[C@@H]2O[C@H](CO)[C@H](O)[C@H](O)[C@H]2O)s1`, the minimum inhibitory concentration (MIC) was over 150 µg/mL in the assay on Pseudomonas aeruginosa; over 150 µg/mL in the assay with Staphylococcus aureus; 12.5 µg/mL (≈ 26.2 µM) with Klebsiella pneumoniae; over 150 µg/mL in the assay with Escherichia coli; over 150 µg/mL in assay [1]; 25 µg/mL (≈ 52.3 µM) against Bacillus subtilis. In addition, the concentration for half-maximal inhibition (IC50) with HeLa was 8.7 µM; in the assay on SK-OV-3 it was “Not Active”; with DU-145 (du-145), “Not Active”; with MDA-MB-231, 32 µM; in the assay on CHO-K1 (cho-k1), “Not Active”.

`CCCCCCCCCCCCCCCCCC(=O)Nc1nnc(S[C@@H]2O[C@H](COC(C)=O)[C@H](OC(C)=O)[C@H](OC(C)=O)[C@H]2OC(C)=O)s1`: the MIC entry (with Pseudomonas aeruginosa; with Staphylococcus aureus; in the assay with Klebsiella pneumoniae; in the assay with Escherichia coli; in assay [1]; with Bacillus subtilis) was “inactive” each time. The IC50 is 97.5 µM in the assay with HeLa; “Not Active” in the assay with SK-OV-3; 31.2 µM with DU-145 (setting [2]); 23.6 µM in the assay on MDA-MB-231; 44.7 µM in the assay with CHO-K1 (setting [3]).

Take `CCCCCC(=O)Nc1nnc(S[C@@H]2O[C@H](COC(C)=O)[C@H](OC(C)=O)[C@H](OC(C)=O)[C@H]2OC(C)=O)s1`: the MIC result (in the assay on Pseudomonas aeruginosa; in the assay on Staphylococcus aureus; with Klebsiella pneumoniae; in the assay with Escherichia coli; in assay [1]; in the assay with Bacillus subtilis) was “inactive” throughout. For the same molecule, the IC50 is 19.8 µM in the assay on HeLa; “Not Active” with SK-OV-3; “Not Active” in the assay on DU-145 (du-145); 25.4 µM in the assay on MDA-MB-231; 24.4 µM with CHO-K1 (setting [3]).

For `CCCCCCCCCCCC(=O)Nc1nnc(S[C@@H]2O[C@H](COC(C)=O)[C@H](OC(C)=O)[C@H](OC(C)=O)[C@H]2OC(C)=O)s1`, the MIC entry (in the assay on Pseudomonas aeruginosa; with Staphylococcus aureus; in the assay with Klebsiella pneumoniae; in the assay on Escherichia coli; in assay [1]; in the assay with Bacillus subtilis) was “inactive” each time. In addition, the IC50 in the assay with HeLa was 51.9 µM; in the assay with SK-OV-3, “Not Active”; with DU-145 (setting [2]) it was 16.9 µM; in the assay with MDA-MB-231, 26.7 µM; with CHO-K1 (setting [3]), 27.7 µM.

Consider `CCCCCCCC(=O)Nc1nnc(S[C@@H]2O[C@H](COC(C)=O)[C@H](OC(C)=O)[C@H](OC(C)=O)[C@H]2OC(C)=O)s1`, for which the MIC result (in the assay on Pseudomonas aeruginosa; in the assay with Staphylococcus aureus; with Klebsiella pneumoniae; in the assay on Escherichia coli; in assay [1]; in the assay on Bacillus subtilis) was “inactive” throughout. For the same molecule, the IC50 in the assay with HeLa was 43.6 µM; in the assay on SK-OV-3 it was “Not Active”; in the assay on DU-145 (du-145), “Not Active”; in the assay with MDA-MB-231, 18.9 µM; in the assay on CHO-K1 (setting [3]), 19.2 µM.
